From patent US9861640B2, “Medicament for treatment of Alzheimer's disease” (KEMPHYS LTD., priority 2013, dated 2018)

Legend:
NEP = test: Immunoblot of NEP in brains of APP23 mice; assay type: in vivo, mouse; settings: Am80 0.5 and/or HX630 5 mg/kg/d, day 18, vs vehicle-treated mice
Description: APP23 mice begin forming amyloid deposits when they are 6 months old, but memory deficits in the MWM test appear quite early (before 3 months of age). Here, we used 8.5-month-old male APP23 mice and their WT littermates (C57BL/6J). We used stratified random sampling to divide mice (four to six per cage) into four groups to equalize the mean body weight of the study groups: mice given 0.5 mg/kg/d Am80, those given 5 mg/kg/d HX630, those given the mixture of 0.5 mg/kg/d Am80 and 5 mg/kg/d HX630, and those given the vehicle. Am80 and HX630 were suspended in 0.5% (w/v) carboxymethylcellulose solution and were orally administered to mice at 0.5 mg/kg (Am80) or 5 mg/kg (HX630) for 17 consecutive days (once daily at 18:00). Control animals received the same volume of 0.5% (w/v) carboxymethylcellulose solution orally, without the other compounds. We set the 0.5 mg/kg/d dose for Am80 on the basis that this had been found effective in other in vivo studies, such as those by Kawahara et al. and Ishido and Shudo [37]. Higher doses of Am80 (3 mg/kg/d and 6 mg/kg/d) were also orally administered to mice for 17 consecutive days. Animals were weighed once a week. Mice were subjected to behavioral testing on days 15-18 of the first oral administration of the compounds (at 19:00-23:00). On days 15-17 (not day 18), animals received the compounds at 24:00, after behavioral testing. […]

IL-4Rα = test: Immunoblot of IL-4Rα in MG5 cells; assay type: cell-based, mouse; settings: 5 μM each, 48 h
Excerpt: Primary microglia (type 1) were harvested from primary mixed glial cell cultures prepared from neonatal Wistar rat pups, as previously reported. Mouse microglial cell line MG5 and mouse glial cell line A1 were maintained as previously described. Mouse neuroblastoma cell line N1E-115 and Neuro 2a (American Type Culture Collection, Manassas, Va., USA) were maintained in Dulbecco's modified Eagle's medium (DMEM) supplemented with 10% fetal bovine serum (FBS), 20 U/ml penicillin (Invitrogen, Gaithersburg, Md., USA), and 20 μg/ml streptomycin (Invitrogen). Primary rat microglia were treated with Am80 (5 μM) and/or HX630 (5 μM) in the presence and absence of GW9662 (10 μM) for 48 h in Eagle's MEM supplemented with 10% FBS and 0.2% glucose. MG5 cells and A1 cells were treated with Am80 (5 μM) and/or HX630 (5 μM) for 48 h in DMEM containing 10% FBS. […]
Rat primary microglia and mouse microglial MG5 cells (5×10^6 cells per 100-mm dish) were homogenized in RIPA buffer [10 mM Hepes-NaOH (pH 7.4) containing 150 mM NaCl, 1 mM EDTA, 1% Triton X-100, 0.5% sodium deoxycholate, 0.1% SDS, 1 mM PMSF, 1 mg/ml leupeptin. […] Bound horseradish peroxidase-labeled antibodies were then detected via chemiluminescence (an ECL kit; Pierce, Rockford, Ill., USA). Protein concentrations were determined with the BCA Protein Assay Reagent (Pierce) and Bradford Protein Assay Reagent (Pierce).

Structure (SMILES) | NEP protein level in brain (immunoblot) (NEP) | IL-4Rα protein levels in MG5 cells (IL-4Rα)
CC1(C)CCC(C)(C)c2cc(NC(=O)c3ccc(C(=O)O)cc3)ccc21 [Am80, 4-{(5,6,7,8-tetrahydro-5,5,8,8-tetramethyl-2-naphthalenyl)carbamoyl}benzoic acid] | Higher levels | did not increase
CN1c2ccccc2N=C(c2ccc(C(=O)O)cc2)c2cc3c(cc21)C(C)(C)CCC3(C)C [HX630, 4-[5H-2,3-(2,5dimethyl-2,5-hexano)-5-methyldibenzo[b,e]-diazepin-11-yl]benzoic acid] | Higher levels | did not increase
